According to publication PMC11538426 (Scientific Reports, 2024):

What was measured:
monocytes = conditions: cited from earlier work
CD3+ T cells = conditions: cited from earlier work
[1] = test system: monocyte-derived DCs (moDCs); format: cell-based, human; conditions: rCD40L 5 µg/mL, 72 h

Substance | Differentiation of monocytes to CD14neg cells (monocytes) | Induction of IL-12p70 in isolated CD3+ T cells in absence of DC engagement (CD3+ T cells) | Differentiation of cells within moDC cultures to CD14neg DC phenotype ([1]; after 7 days GM-CSF/IL-4, Fig. 1a) | Proliferative capacity of moDCs (Ki67 expression) ([1]; Fig. 1b)
RSKAKNPLYR linked to R8 [IK14800] | does not promote differentiation of monocytes to CD14^neg cells | contributes to induction of IL-12p70 |  | 
rCD40L: recombinant CD40 ligand (BioLegend), used at 5 µg/mL |  |  | near-total differentiation of cells to the CD14^neg DC phenotype | not associated with a significant change in the proliferative capacity
